Data on seven compounds can be found in paper PMC12163822, “Synthesis and Pharmacological Characterization of a Novel Cannabinoid Receptor 1 Antagonist” (ACS Omega, 2025).

One may read the IC50 as the midpoint of a concentration-inhibition curve.

The target of the experiment is cannabinoid receptors. The experiment is described as follows: [3H]CP55,940 competition binding in rat brain cortex membrane homogenates. On the set-up: species or system Sprague-Dawley rat. The note with it: competition vs 0.5 nM [3H]CP55,940, rat brain cortex membranes, one-site fit; read-out: IC50. On the procedure: Sprague–Dawley rats (n = 5) were anesthetized and sacrificed by decapitation. Spleens and brains were then quickly removed by dissection at 4 °C, and in the case of the brain tissue, the cortex was dissected for the preparation of the membrane homogenates. For this procedure, spleen and cortex samples were homogenized using a Teflon-glass grinder (15 up-and-down strokes at 800 rpm) in 30 volumes of homogenization buffer (1 mM EGTA, 3 mM MgCl2, 50 mM Tris–HCl; pH 7.4) supplemented with […], at 4 °C. The obtained homogenates were centrifuged for 5 min at 1500 rpm. Pellets were removed, and supernatants were centrifuged again for 15 min at 14,000 rpm. For washing, the obtained pellets were resuspended in a buffer and centrifuged again, and the supernatant was removed. The resulting aliquots were stored at −80 °C until use.
To stop the reaction, an ice-cold wash buffer (50 mM Tris–HCl and 0.5% BSA, pH 7.4) was added. Then, the membranes were retained by vacuum filtration to a Whatman GF/C glass microfiber filter (Sigma-Aldrich, St. Louis, MO, USA) and the free radioligand was discarded. Filters with the bound radioligand were transferred to vials containing 5 mL of Ultima Gold cocktail (Revvity, Boston, MA, USA) and measured with a Packard Tri-Carb 2200CA liquid scintillation counter (Revvity, Boston, MA, USA).
Data from radioligand affinity assays were analyzed by using nonlinear regression. A comparison of fits was performed for every curve and the preferred model (one site vs two sites) was chosen in each case. Curves were fitted to the pooled data from multiple experiments. For the evaluation of data from autoradiographic assays, the Kruskal–Wallis test followed by Dunn’s post hoc tests for multiple comparisons was performed. For statistical significance, the threshold was set at p = 0.05. The number of replicates or animal sample number used in each case is stated in the figure legends. GraphPad Prism 9 (GraphPad Software) was employed for data analysis and presentation.

Consider `CCOC(=O)CC1c2c([nH]c3ccccc23)-c2ccccc2-n2c(C)nnc21` (stereo not shown) [UVI8113], for which the IC50 came out at 0.0106 µM.

On to `CCOC(=O)/C=C1\C(=O)Nc2ccc(F)cc2-c2c1c1cc(C)ccc1n2C(=O)OCC` [UVI3503], for which the IC50 is more than 10 µM.

In the case of `CCOC(=O)CC1C(=O)Nc2ccccc2-c2[nH]c3ccccc3c21` (stereo not shown) [UVI3505], the IC50 worked out at 0.00885 ± 0.0146 µM.

Consider `O=C(O)/C=C1\C(=O)Nc2ccccc2-c2[nH]c3ccccc3c21` [UVI3506], for which the IC50 turned out to be 7.041 ± 0.018 µM.

Turning to `CCOC(=O)/C=C1\C(=O)Nc2ccccc2-c2c1c1ccccc1n2C(=O)OCC` [UVI3508], the IC50 was determined as 310 µM.

Regarding `COc1ccc2[nH]c3c(c2c1)/C(=C/C(=O)O)C(=O)Nc1ccc(C)cc1-3` [UVI3509], the IC50 is more than 10 µM.

For the compound `O=C(O)CC1C(=O)Nc2ccccc2-c2[nH]c3ccccc3c21` (stereo not shown) [UVI3504], the IC50 stood at 5.908 ± 0.00718 µM.
